From ChEMBL document CHEMBL2417425, “Design and synthesis of positional isomers of 5 and 6-bromo-1-[(phenyl)sulfonyl]-2-[(4-nitrophenoxy)methyl]-1H-benzimidazoles as possible antimicrobial and antitubercular agents” (2013)
≈ marks a conversion by molar mass, not a printed value.

tested on: Mycobacterium tuberculosis; assay: Antimycobacterial activity against multidrug-resistant Mycobacterium tuberculosis assessed as growth inhibition at 0.3125 to 5 ug/mL by resazurin assay; format: functional

Row | Structure (SMILES) | MIC
1 | Nc1ccc(OCc2nc3cc(Br)ccc3[nH]2)cc1 | 25 µg/mL (≈ 78.6 µM)
2 | N#Cc1cccc(S(=O)(=O)n2c(COc3ccc([N+](=O)[O-])cc3)nc3ccc(Br)cc32)c1 | > 50 µg/mL
3 | Cc1c(F)cccc1S(=O)(=O)n1c(COc2ccc([N+](=O)[O-])cc2)nc2ccc(Br)cc21 | > 50 µg/mL
4 | CO[C@H]1/C=C/O[C@@]2(C)Oc3c(C)c(O)c4c(O)c(c(/C=N/N5CCN(C)CC5)c(O)c4c3C2=O)NC(=O)/C(C)=C\C=C\[C@H](C)[C@H](O)[C@@H](C)[C@@H](O)[C@@H](C)[C@H](OC(C)=O)[C@@H]1C [RIFAMPIN] | 25 µg/mL (≈ 30.4 µM)
5 | NNC(=O)c1ccncc1 [ISONIAZID] | 12.5 µg/mL (≈ 91.1 µM)
6 | COc1ccc(OC)c(S(=O)(=O)n2c(COc3ccc([N+](=O)[O-])cc3)nc3cc(Br)ccc32)c1 | > 50 µg/mL
7 | Cc1c(F)cccc1S(=O)(=O)n1c(COc2ccc([N+](=O)[O-])cc2)nc2cc(Br)ccc21 | > 50 µg/mL
8 | O=[N+]([O-])c1ccc(OCc2nc3ccc(Br)cc3n2S(=O)(=O)c2cc(Cl)ccc2Cl)cc1 | > 50 µg/mL
9 | Cc1cccc(S(=O)(=O)n2c(COc3ccc([N+](=O)[O-])cc3)nc3ccc(Br)cc32)c1 | > 50 µg/mL
10 | N#Cc1cccc(S(=O)(=O)n2c(COc3ccc([N+](=O)[O-])cc3)nc3cc(Br)ccc32)c1 | > 50 µg/mL
11 | COc1ccc(OC)c(S(=O)(=O)n2c(COc3ccc([N+](=O)[O-])cc3)nc3ccc(Br)cc32)c1 | 25 µg/mL (≈ 45.6 µM)
12 | COc1ccc(S(=O)(=O)n2c(COc3ccc([N+](=O)[O-])cc3)nc3ccc(Br)cc32)c(OC)c1 | 2.5 µg/mL (≈ 4.56 µM)
13 | O=[N+]([O-])c1ccc(OCc2nc3cc(Br)ccc3n2S(=O)(=O)c2cc(F)ccc2F)cc1 | 6.25 µg/mL (≈ 11.9 µM)
14 | Cc1cccc(S(=O)(=O)n2c(COc3ccc([N+](=O)[O-])cc3)nc3cc(Br)ccc32)c1 | > 50 µg/mL
15 | O=[N+]([O-])c1ccc(OCc2nc3cc(Br)ccc3n2S(=O)(=O)c2ccccc2[N+](=O)[O-])cc1 | 6.25 µg/mL (≈ 11.7 µM)
16 | O=[N+]([O-])c1ccc(OCc2nc3cc(Br)ccc3n2S(=O)(=O)c2ccc(Cl)cc2Cl)cc1 | > 50 µg/mL
17 | O=[N+]([O-])c1ccc(OCc2nc3ccc(Br)cc3n2S(=O)(=O)c2cc(F)ccc2F)cc1 | > 50 µg/mL
18 | O=[N+]([O-])c1ccc(OCc2nc3cc(Br)ccc3n2S(=O)(=O)c2cc(Cl)ccc2Cl)cc1 | > 50 µg/mL
19 | COc1ccc(S(=O)(=O)n2c(COc3ccc([N+](=O)[O-])cc3)nc3cc(Br)ccc32)c(OC)c1 | > 50 µg/mL
20 | O=[N+]([O-])c1ccc(OCc2nc3cc(Br)ccc3n2S(=O)(=O)c2ccccc2Cl)cc1 | 6.25 µg/mL (≈ 12 µM)
21 | O=[N+]([O-])c1ccc(OCc2nc3ccc(Br)cc3n2S(=O)(=O)c2ccccc2[N+](=O)[O-])cc1 | > 50 µg/mL
